# Columns and labels:
# [1] = tested on: CML-CP with T315I mutation; assay: Phase I dose escalation and dose expansion clinical trial: efficacy in CML-CP subjects with T315I mutation; format: in vivo, humans
# Source text: This study is a single-arm, open-label, dose-escalation and dose-expansion Phase I clinical trial.
# The dose-escalation phase of this trial consists of about 8 dose groups, with oral administration under fasting conditions. Subjects in all dose groups will receive a single dose on Day 1 (D1), followed by pharmacokinetic (PK) and tolerability observations. […] After entering the multiple-dose period, subjects in the first dose group will initially receive twice-daily (BID) dosing (if PK data from the single-dose period are available, the dosing frequency during the multiple-dose period may be adjusted based on the PK data). The dosing frequency for subjects in subsequent dose groups after entering the multiple-dose period will be determined based on available PK and tolerability data. Throughout the trial, dosing frequency for all subjects may be adjusted based on continuously updated safety and PK data.
# A continuous reassessment method (CRM) based on the principle of the escalation with overdose control (EWOC) design will be used to recommend the next specific dose for each dose escalation, thereby completing dose escalation and determining the maximum tolerated dose (MTD). If both the investigator and sponsor believe that higher dose groups may offer better efficacy and manageable safety, the EWOC-based CRM method may be used to explore higher doses. All enrolled subjects will receive long-term treatment with the test drug and undergo evaluations for safety, tolerability, and preliminary efficacy.
# After obtaining certain research data from the dose-escalation phase, the investigator may comprehensively consider safety, efficacy, and other information to decide whether to enroll additional subjects at the MTD and/or lower dose levels to determine the recommended Phase II dose (RP2D). Two to four suitable dosing regimens will be selected for expansion in the target population (including subjects enrolled at the target dose levels during the escalation phase).
# A total of 8 dose groups were established: 10 mg bid, 20 mg bid, 40 mg bid, 80 mg bid, 40 mg qd, 80 mg qd, 160 mg qd, and 240 mg qd.
# The dose expansion phase was conducted in the following 3 cohorts: • Cohort 1: Subjects with chronic phase (CP) chronic myeloid leukemia (CML) who had previously received at least ≥2 different TKIs and were T315I-negative. A total of 3 dose groups were established: 40 mg qd, 80 mg qd, and 240 mg qd; • Cohort 2: Subjects with chronic phase (CP) chronic myeloid leukemia (CML) who have previously received ≥1 TKI and were T315I-positive. A total of 2 dose groups were established: 40 mg qd and 240 mg qd; • Cohort 3: Subjects with accelerated phase (AP) chronic myeloid leukemia (CML) who have previously received ≥1 TKI, regardless of T315I positivity. A total of 1 dose group was established: 240 mg qd.
# [2] = Phase I clinical trial: pharmacokinetics; format: in vivo, humans; conditions: CML patients, oral
# Source text: • 1) To preliminarily evaluate the pharmacokinetic characteristics of Compound A after multiple oral administrations; • 2) To preliminarily evaluate the antitumor effects of Compound A.
# This study is a single-arm, open-label, dose-escalation and dose-expansion Phase I clinical trial. The trial plans to enroll patients with chronic myeloid leukemia (CML) who have developed resistance or intolerance after prior treatment with BCR-ABL1 tyrosine kinase inhibitor(s) (TKIs).
# The dose-escalation phase of this trial consists of about 8 dose groups, with oral administration under fasting conditions. Subjects in all dose groups will receive a single dose on Day 1 (D1), followed by pharmacokinetic (PK) and tolerability observations. If no drug-related adverse events of Grade 3 or higher occur during the single-dose period, the subject will enter the multiple-dose period (i.e., the treatment period) after 3-5 days (for the first dose group, the multiple-dose period begins 5 days after the first dose [i.e., starting on Day 6]; for subsequent dose groups, the interval will be determined based on available tolerability and PK data). […] The dosing frequency for subjects in subsequent dose groups after entering the multiple-dose period will be determined based on available PK and tolerability data. […]
# [3] = CML-CP subjects with T315I mutation, all doses, 16 evaluable, as of August 24, 2023
# [4] = CML-CP subjects with T315I mutation, as of August 24, 2023
# [5] = CML-CP subjects with T315I mutation, as of June 2, 2024
# [6] = CML-CP with T315I mutation, 10 mg BID, 0 evaluable subjects, as of August 24, 2023
# [7] = CML-CP with T315I mutation, 20 mg BID, 1 evaluable subject, as of August 24, 2023
# [8] = CML-CP with T315I mutation, 40 mg BID, 1 evaluable subject, as of August 24, 2023
# [9] = CML-CP with T315I mutation, 40 mg QD, 2 evaluable subjects, as of August 24, 2023
# [10] = CML-CP with T315I mutation, 40 mg/day Total, 3 evaluable subjects, as of August 24, 2023
# [11] = CML-CP with T315I mutation, 80 mg BID, 1 evaluable subject, as of August 24, 2023
# [12] = CML-CP with T315I mutation, 80 mg QD, 0 evaluable subjects, as of August 24, 2023
# [13] = CML-CP with T315I mutation, 80 mg/day Total, 1 evaluable subject, as of August 24, 2023
# [14] = CML-CP with T315I mutation, 160 mg QD, 1 evaluable subject, as of August 24, 2023
# [15] = CML-CP with T315I mutation, 160 mg/day Total, 2 evaluable subjects, as of August 24, 2023
# [16] = CML-CP with T315I mutation, 240 mg QD, 10 evaluable subjects, as of August 24, 2023
# [17] = CML-CP with T315I mutation, Total, all dose groups, 16 evaluable subjects, as of August 24, 2023
structure (smiles),measurement,setting,value
"O=C(Nc1ccc(OC(F)(F)Cl)cc1)c1cnc(N2CC[C@@H](F)C2)c(-c2cnccn2)c1 [Compound A, (R)-N-(4-(chlorodifluoromethoxy)phenyl)-6-(3-fluoropyrrolidin-1-yl)-5-(pyrazin-2-yl)nicotinamide]",CHR,"[1]; CML-CP subjects with T315I mutation, all doses, 13 evaluable, as of August 24, 2023",92.3%
same,CCyR,[1]; [3],56.3%
same,MCyR,[1]; [3],62.5%
same,MMR,"[1]; CML-CP subjects with T315I mutation, all doses, 17 evaluable, as of August 24, 2023",35.3%
same,CHR within 3 treatment cycles,"[1]; CML-CP subjects with T315I mutation, 20 evaluable, as of June 2, 2024",80%
same,median time to CCyR,[1]; [4],"2.83 (2.76, 2.92) months"
same,median time to MCyR,[1]; [4],"2.81 (2.76, 2.83) months"
same,median time to MMR,[1]; [4],"2.81 (2.76, 3.68) months"
same,18-month cumulative incidence of CCyR,[1]; [5],69%
same,18-month cumulative incidence of MCyR,[1]; [5],76%
same,18-month cumulative incidence of MMR,[1]; [5],50%
same,CCyR,[1]; [6],0 n (%)
same,CHR,[1]; [6],0 n (%)
same,MCyR,[1]; [6],0 n (%)
same,MMR,[1]; [6],0 n (%)
same,CCyR,[1]; [7],1 (100) n (%)
same,CHR,[1]; [7],1 (100) n (%)
same,MCyR,[1]; [7],1 (100) n (%)
same,MMR,[1]; [7],0 n (%)
same,CCyR,[1]; [8],0 n (%)
same,CHR,[1]; [8],1 (100) n (%)
same,MCyR,[1]; [8],0 n (%)
same,MMR,[1]; [8],0 n (%)
same,CHR,"[1]; CML-CP with T315I mutation, 40 mg QD, 0 evaluable subjects, as of August 24, 2023",0 n (%)
same,CCyR,[1]; [9],2 (100) n (%)
same,MCyR,[1]; [9],2 (100) n (%)
same,MMR,"[1]; CML-CP with T315I mutation, 40 mg QD, 3 evaluable subjects, as of August 24, 2023",2 (66.7) n (%)
same,CHR,"[1]; CML-CP with T315I mutation, 40 mg/day Total, 1 evaluable subject, as of August 24, 2023",1 (100) n (%)
same,CCyR,[1]; [10],3 (100) n (%)
same,MCyR,[1]; [10],3 (100) n (%)
same,MMR,"[1]; CML-CP with T315I mutation, 40 mg/day Total, 4 evaluable subjects, as of August 24, 2023",2 (50.0) n (%)
same,CHR,"[1]; CML-CP with T315I mutation, 80 mg BID, 0 evaluable subjects, as of August 24, 2023",0 n (%)
same,CCyR,[1]; [11],1 (100) n (%)
same,MCyR,[1]; [11],1 (100) n (%)
same,MMR,[1]; [11],1 (100) n (%)
same,CCyR,[1]; [12],0 n (%)
same,CHR,[1]; [12],0 n (%)
same,MCyR,[1]; [12],0 n (%)
same,MMR,[1]; [12],0 n (%)
same,CCyR,[1]; [13],0 n (%)
same,CHR,[1]; [13],1 (100) n (%)
same,MCyR,[1]; [13],0 n (%)
same,MMR,[1]; [13],0 n (%)
same,CCyR,[1]; [14],1 (100) n (%)
same,CHR,[1]; [14],1 (100) n (%)
same,MCyR,[1]; [14],1 (100) n (%)
same,MMR,[1]; [14],1 (100) n (%)
same,CHR,"[1]; CML-CP with T315I mutation, 160 mg/day Total, 1 evaluable subject, as of August 24, 2023",1 (100) n (%)
same,CCyR,[1]; [15],2 (100) n (%)
same,MCyR,[1]; [15],2 (100) n (%)
same,MMR,[1]; [15],2 (100) n (%)
same,CCyR,[1]; [16],4 (40.0) n (%)
same,CHR,[1]; [16],9 (90.0) n (%)
same,MCyR,[1]; [16],5 (50.0) n (%)
same,MMR,[1]; [16],2 (20.0) n (%)
same,CHR,"[1]; CML-CP with T315I mutation, Total, all dose groups, 13 evaluable subjects, as of August 24, 2023",12 (92.3) n (%)
same,CCyR,[1]; [17],9 (56.3) n (%)
same,MCyR,[1]; [17],10 (62.5) n (%)
same,MMR,"[1]; CML-CP with T315I mutation, Total, all dose groups, 17 evaluable subjects, as of August 24, 2023",6 (35.3) n (%)
same,exposure versus dose,[2],dose-proportional
same,half-life,"[2]; human, in vivo, read-out: terminal half-life",> 100 h
